Source: PubChem BioAssay (NCI)
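Cells were grown in 96-well plates and exposed to each compound for 48 hours at five concentrations; endpoints were interpolated linearly between bracketing concentrations, or set to the highest concentration if not reached. Definition used: TGI = concentration required for complete inhibition of growth.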

What was measured:
Assay in all cases: NCI tumour cell line growth inhibition, 48 h
[1] = test system: SK-MEL-28 melanoma
[2] = test system: LOX IMVI melanoma
[3] = test system: A549 NSCLC
[4] = test system: SW-620 colon
[5] = test system: KM12 colon
[6] = test system: NCI-H226 lung
[7] = test system: NCI-H23 lung
[8] = test system: RXF 393 renal
[9] = test system: UACC-257 melanoma
[10] = test system: MALME-3M melanoma
[11] = test system: SK-MEL-2 melanoma
[12] = test system: SF-295 CNS
[13] = test system: K-562 leukemia
[14] = test system: 786-0 renal
[15] = test system: SNB-19 CNS
[16] = test system: CCRF-CEM leukemia
[17] = test system: HOP-18 NSCLC
[18] = test system: TK-10 renal
[19] = test system: CAKI-1 renal
[20] = test system: LXFL 529 NSCLC
[21] = test system: ACHN renal
[22] = test system: OVCAR-3 ovarian
[23] = test system: HT29 colon
[24] = test system: OVCAR-8 ovarian
[25] = test system: HCT-116 colon
[26] = test system: SNB-78 CNS
[27] = test system: HOP-62 NSCLC
[28] = test system: OVCAR-5 ovarian
[29] = test system: IGROV1 ovarian
[30] = test system: DLD-1 colon
[31] = test system: HCT-15 colon
[32] = test system: M19-MEL melanoma
[33] = test system: HOP-92 NSCLC
[34] = test system: SR leukemia
[35] = test system: HL-60(TB) leukemia
[36] = test system: RPMI-8226 leukemia
[37] = test system: SN12C renal
[38] = test system: EKVX NSCLC
[39] = test system: UACC-62 melanoma
[40] = test system: KM20L2 colon
[41] = test system: XF 498 CNS
[42] = test system: SF-539 CNS
[43] = test system: HCC-2998 colon
[44] = test system: UO-31 renal
[45] = test system: A498 renal
[46] = test system: SF-268 CNS
[47] = test system: DMS 273 small cell lung
[48] = test system: OVCAR-4 ovarian
[49] = test system: M14 melanoma
[50] = test system: DMS 114 small cell lung
[51] = test system: MOLT-4 leukemia
[52] = test system: SK-MEL-5 melanoma
[53] = test system: NCI-H460 lung
[54] = test system: SNB-75 CNS
[55] = test system: SK-OV-3 ovarian
[56] = test system: U251 CNS
[57] = test system: COLO 205 colon
[58] = test system: RXF-631 renal
[59] = test system: NCI-H522 lung

Measured: TGI

CC1=C(C(=O)NCc2ccccc2)C(/C=C/c2ccccc2)C(C(=O)NCc2ccccc2)=C(C)N1
> 100 µM: [1] | [2] | [3] | [4] | [5] | [6] | [7] | [8] | [9] | [10] | [11] | [12] | [13] | [14] | [15] | [16] | [17] | [18] | [19] | [20] | [21] | [22] | [23] | [24] | [25] | [26] | [27] | [28] | [29] | [30] | [31] | [32] | [33] | [34] | [35] | [36] | [37] | [38] | [39] | [40] | [41] | [42] | [43] | [44] | [45] | [46] | [47] | [48] | [49] | [50] | [51] | [52] | [53] | [54]

CCOc1ccc(NC(=O)C(=O)CC(=O)c2c[n+](=O)c3cc(C)c(C)cc3n2[O-])cc1
> 100 µM: [1] | [2] | [3] | [4] | [5] | [6] | [7] | [8] | [9] | [10] | [11] | [12] | [13] | [14] | [15] | [16] | [17] | [55] | [18] | [19] | [20] | [21] | [56] | [22] | [23] | [24] | [25] | [26] | [27] | [28] | [29] | [31] | [32] | [33] | [34] | [35] | [57] | [36] | [37] | [38] | [39] | [40] | [41] | [42] | [43] | [44] | [45] | [46] | [47] | [58] | [48] | [49] | [50] | [51] | [59] | [52] | [53] | [54]
